Measurements published in PubChem BioAssay AID1259411 (Chemical Carcinogenesis Research Information System (CCRIS), 2018).
Activity calls are given as the source filed them. No rule for the calls is given here.

Test system: rodent carcinogenicity bioassays, tumor incidence
Assay: CCRIS carcinogenicity studies
How it was run: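 Archive of carcinogenicity, mutagenicity, tumor promotion and tumor inhibition results drawn from journals, NCI reports and other sources, expert-reviewed; covers 1985-2011 and is no longer updated.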

## O=S(=O)([O-])[O-].[Cd+2]
Species: HAMSTER, Strain/Sex: SYRIAN/FEMALE, Route: INHALATION, Dose: 0, 30 UG/M3 19 HR/D 5 D/WK FOR 65 WK FOR A TOTAL CADMIUM DOSE OF 0, 180 MG/M3 (STUDY DURATION: 77 WK), Dose: 0, 30 UG/M3 19 HR/D 5 D/WK FOR 65 WK FOR A TOTAL CADMIUM DOSE OF 0, 180 MG/M3 (STUDY DURATION: 77 WK)
  carcinogen call: inactive; negative
Species: HAMSTER, Strain/Sex: SYRIAN/MALE, Route: INHALATION, Dose: 0, 30 UG/M3 19 HR/D 5 D/WK FOR 65 WK FOR A TOTAL CADMIUM DOSE OF 0, 180 MG/M3 (STUDY DURATION: 113 WK), Dose: 0, 30 UG/M3 19 HR/D 5 D/WK FOR 65 WK FOR A TOTAL CADMIUM DOSE OF 0, 180 MG/M3 (STUDY DURATION: 113 WK)
  carcinogen call: inactive; negative
Species: RAT, Strain/Sex: ALBINO/MALE, Route: SUBCUTANEOUS, Dose: 0.5 MG IN WATER 1/WK FOR 10 WK, Tumor Site: Type of Lesion: INJECTION SITE: SARCOMA, TESTES: INTERSTITIAL CELL TUMOR
  carcinogen call: active; positive
Species: RAT, Strain/Sex: CB/MALE, Route: SUBCUTANEOUS, Dose: 0.5 MG, 1/WK FOR 10 WK, Tumor Site: Type of Lesion: INJECTION SITE: SARCOMA, TESTES: INTERSTITIAL CELL TUMOR
  carcinogen call: active; positive
Species: RAT, Strain/Sex: WISTAR/FEMALE, Route: INHALATION, Dose: 0, 90 UG/M3 22 HR/D 7 D WK FOR 18 MO (STUDY DURATION: 18 MO), Tumor Site: Type of Lesion: LUNG: ALVEOLAR/BRONCHIOLAR ADENOMA, ALVEOLAR/BRONCHIOLAR ADENOCARCINOMA, SQUAMOUS CELL CARCINOMA
  carcinogen call: active; positive
Species: RAT, Strain/Sex: WISTAR/FEMALE, Route: INHALATION, Dose: 0, 90 UG/M3 22 HR/D 7 D/WK FOR 18 MO (STUDY DURATION: 29 MO), Tumor Site: Type of Lesion: LUNG: ALVEOLAR/BRONCHIOLAR ADENOMA, ADENOCARCINOMA, SQUAMOUS CELL CARCINOMA
  carcinogen call: active; positive
Species: RAT, Strain/Sex: WISTAR/FEMALE, Route: INHALATION, Dose: 0, 90 UG/M3 22 HR/D 7 D/WK FOR 18 MO (STUDY DURATION: 29 MO), Tumor Site: Type of Lesion: LUNG: TUMOR
  carcinogen call: active; positive
Species: RAT, Strain/Sex: WISTAR/FEMALE, Route: INHALATION, Dose: 0, 90 UG/M3 AEROSOL 22 HR/D 7 D/WK FOR 18 MO (STUDY DURATION: 29 MO), Tumor Site: Type of Lesion: LUNG: ALVEOLAR/BRONCHIOLAR ADENOMA, ADENOCARCINOMA, SQUAMOUS CELL CARCINOMA
  carcinogen call: active; positive
Species: RAT, Strain/Sex: WISTAR/MALE, Route: INHALATION, Dose: 0, 90 UG/M3 22 HR/D 7 D/WK FOR 14 MO (STUDY DURATION: 31 MO), Tumor Site: Type of Lesion: LUNG: ALVEOLAR/BRONCHIOLAR ADENOMA, ADENOCARCINOMA
  carcinogen call: active; positive
Species: RAT, Strain/Sex: WISTAR/MALE, Route: INHALATION, Dose: 0, 90 UG/M3 22 HR/D 7 D/WK FOR 14 MO (STUDY DURATION: 31 MO), Tumor Site: Type of Lesion: LUNG: TUMOR
  carcinogen call: active; positive
Species: RAT, Strain/Sex: WISTAR/MALE, Route: INHALATION, Dose: 0, 90 UG/M3 22 HR/D 7 D/WK FOR 135 MO (STUDY DURATION: 13.5 MO), Tumor Site: Type of Lesion: LUNG: ALVEOLAR/BRONCHIOLAR ADENOMA, ALVEOLAR/BRONCHIOLAR ADENOCARCINOMA, SQUAMOUS CELL CARCINOMA
  carcinogen call: active; positive
Species: RAT, Strain/Sex: WISTAR/MALE, Route: INHALATION, Dose: 0, 90 UG/M3 AEROSOL 22 HR/D 7 D/WK FOR 14 MO (STUDY DURATION: 31 MO), Tumor Site: Type of Lesion: LUNG: ALVEOLAR/BRONCHIOLAR ADENOMA, ADENOCARCINOMA
  carcinogen call: active; positive

## Oc1cc(Cl)ccc1Oc1ccc(Cl)cc1Cl
Species: Hamster, Strain/Sex: Bio FID Alexander Syrian/Female (60/group), Route: Oral, Dose: 0, 12.5, 75, 250 mg/kg in diet for 90-95 wk, Dose: 0, 12.5, 75, 250 mg/kg in diet for 90-95 wk
  carcinogen call: inactive; negative (study details not given in source; purity 99.5%)
Species: Hamster, Strain/Sex: Bio FID Alexander Syrian/Male (60/group), Route: Oral, Dose: 0, 12.5, 75, 250 mg/kg in diet for 90-95 wk, Dose: 0, 12.5, 75, 250 mg/kg in diet for 90-95 wk
  carcinogen call: inactive; negative (study details not given in source; purity 99.5%)
Species: Rat, Strain/Sex: Sprague-Dawley/Female (60/group), Route: Oral, Dose: 0, 300, 1,200, 3,000 ppm in diet for 78 wk, Dose: 0, 300, 1,200, 3,000 ppm in diet for 78 wk
  carcinogen call: inactive; negative (study details not given in source; purity 99%)
Species: Rat, Strain/Sex: Sprague-Dawley/Male (60/group), Route: Oral, Dose: 0, 300, 1,200, 3,000 ppm in diet for 78 wk, Dose: 0, 300, 1,200, 3,000 ppm in diet for 78 wk
  carcinogen call: inactive; negative (study details not given in source; purity 99%)

## COCc1cnc(C2=NC(C)(C(C)C)C(=O)N2)c(C(=O)O)c1 (configuration not stated)
Species: Mouse, Strain/Sex: CD-1/Female (55/Group), Route: Oral, Dose: 0, 96, 664, 1348 mg/kg/day of 97.1% imazamox in diet for at least 18 mo, study duration at least 18 mo, Dose: 0, 96, 664, 1348 mg/kg/day of 97.1% imazamox in diet for at least 18 mo, study duration at least 18 mo
  carcinogen call: inactive; negative
Species: Mouse, Strain/Sex: CD-1/Male (55/Group), Route: Oral, Dose: 0, 73, 535, 1053 mg/kg/day of 97.1% imazamox in diet for at least 18 mo, study duration at least 18 mo, Dose: 0, 73, 535, 1053 mg/kg/day of 97.1% imazamox in diet for at least 18 mo, study duration at least 18 mo
  carcinogen call: inactive; negative
Species: Rat, Strain/Sex: Sprague-Dawley/Female (65/Group), Route: Oral, Dose: 0, 63, 626, 1284 mg/kg/day of 97.1% imazamox in diet for 24 mo, study duration 24 mo, Dose: 0, 63, 626, 1284 mg/kg/day of 97.1% imazamox in diet for 24 mo, study duration 24 mo
  carcinogen call: inactive; negative
Species: Rat, Strain/Sex: Sprague-Dawley/Male (65/Group), Route: Oral, Dose: 0, 52, 528, 1068 mg/kg/day of 97.1% imazamox in diet for 24 mo, study duration 24 mo, Dose: 0, 52, 528, 1068 mg/kg/day of 97.1% imazamox in diet for 24 mo, study duration 24 mo
  carcinogen call: inactive; negative

## CC(=O)Nc1ccc2ccc3cccc4ccc1c2c34
Species: RAT, Strain/Sex: STRAIN-CD/FEMALE, Route: INTRAPERITONEAL, Dose: 0, 67 UMOL/KG BW IN DMSO 3/WK FOR 4 WK (STUDY DURATION: 61 WK)
  carcinogen call: inactive; negative
Species: RAT, Strain/Sex: STRAIN-CD/FEMALE, Route: INTRAPERITONEAL, Dose: 0, 67 UMOL/KG/BW IN 25 UMOL/ML DMSO 3/WK FOR 4 WK (TOTAL DOSE: 0; 119 UMOL) ADMINISTERED TO WEANLING RATS (STUDY DURATIO, Dose: 0, 67 UMOL/KG/BW IN 25 UMOL/ML DMSO 3/WK FOR 4 WK (TOTAL DOSE: 0; 119 UMOL) ADMINISTERED TO WEANLING RATS (STUDY DURATIO
  carcinogen call: inactive; negative
